This is an account of results in patent US10662225B2, “Backbone cyclized inhibitory peptides of myeloid differentiation factor 88 (MyD88)” (Yissum Research Development Company of the Hebrew …, priority 2016, dated 2020).

In data set [1] the target is T1, MyD88 (Mus musculus, UniProt P22366).
T1 construct: endogenous in cells; host or cells: MOG35-55 specific T cells
Briefly: IL-18-induced IFN-γ secretion by MOG35-55 specific T cells (ELISA). The format is cell-based. The method, then:
FIG. 1. MyD88 inhibitor linear peptide down-regulates IL-18-induced T-cell interferon gamma (IFN-γ) production in vitro. A: MOG35-55 specific T cells were incubated with MIP (SEQ ID NO: 1), or the scrambled version of MIP (MIPscr, PTDLVRG, SEQ ID NO: 5), or without peptide (control) for 2 h. T-cells were then plated with (right side of graph) or without (left side of graph) 30 ng/ml IL-18 for 22 h and IFN-γ production was measured by ELISA. Asterisks denote P<0.0001 compared to no inhibitor peptide or MIPscr. B: MOG35-55 specific T cells were incubated with MIP (SEQ ID NO: 1), or the scrambled version of MIP (MIPscr, SEQ ID NO: 5), or without peptide (control) for 2 h. T-cells were then plated with (right side of graph) or without (left side of graph) 30 ng/ml IL-18 for 22 h in the presence of irradiated splenocytes and MOG35-55 peptide ([…], SEQ ID NO: 4) (5 μg/ml). IFN-γ production was measured by ELISA. Asterisks denote P<0.0001 compared to no inhibitor peptide.
To investigate the ability of the MyD88 inhibitor linear peptide (termed either MIP or MyDI) to inhibit MyD88 activity in T-cells in vitro, the secretion of IFN-γ by MOG-specific T cells in response to IL-18 stimulation was tested. The signaling of IL-18 trough the IL-18 receptor is MyD88 dependent. […] Cells were then stimulated with IL-18, and IFN-γ levels in the supernatants were analyzed after 24 h. […]

The nature of data set [2]: Metabolic stability in plasma (quantitative HPLC). In kind it is in vitro ADME, human. The conditions noted are these: plasma; 4×4MyDI: first two hours. The method, then:
FIGS. 17A and 17B. 4×4MyDI is metabolically stable in comparison to the linear MyDI peptide. 4×4MyDI vs. linear MyDI heptapeptide were incubated independently in either human plasma […] or human plasma supplemented with Brush Border Membrane Vesicles (BBMV, 18B). At various time points the solution was sampled and the amount of remaining compound was determined by quantitative HPLC.
Peptide backbone cyclization confers metabolic stability on peptides that are inherently susceptible to degradation by proteases. […] The stability of the compounds was then tested in plasma enriched with Brush Border Membrane Vesicles (BBMV). This system models the degradative conditions of the intestine.

For data set [3], the system named is MyD88-dependent signaling. Briefly: TNFα production by THP-1 derived macrophages stimulated with PAM3csk. In kind it is cell-based, human. The following applies: THP-1 macrophages, PAM3csk overnight. Here is the method: FIG. 5. Human monocytic THP-1 cells were differentiated to macrophages and were stimulated with PAM3csk overnight in the absence or presence of the cyclic 4-carbon bridge peptide or 6-carbon bridge peptide. TNFα levels in the supernatants were determined by ELISA.
Both cyclic peptides were synthesized with the addition of a tryptophan group to the N-terminus to enable accurate quantification of the molecules.

The test system of data set [4] is MyD88-dependent signaling. Briefly: Library screen: TNFα production by U937 macrophage cells stimulated with PAM3Csk. In kind it is cell-based, human. The conditions noted are these: PAM3Csk overnight, peptide concentration estimated 2-4 μM. The method, then: FIG. 4. Screening results of the peptide library of 16 compounds. Human macrophage U937 cells were stimulated with PAM3csk overnight in the absence or presence of each of the cyclic peptides. Human TNFα levels in the supernatants were determined by ELISA. […].
The backbone cyclic library of 16 compounds synthesized in Example 3 was screened for inhibition of MyD88-dependent signaling through innate immune receptors employing the human macrophage cell line U937. […] The concentration of the cyclic peptides in the library was estimated to be 2-4 μM.

Data set [5] concerns NFκB p65 nuclear translocation. Description: NFκB p65 nuclear translocation in HeLa cells stimulated with TNFα or IL-1β. In kind it is cell-based. The conditions noted are these: HeLa cells. Here is the method:
FIG. 6. HeLa assay showing specificity of MyD88 inhibition. HeLa cells were stimulated with recombinant TNFα or IL-1β and NFkB localization was determined with anti-p65 conjugated to rhodamine. The percent of cells with nuclear localization was determined and is shown in the bar graphs on the right. 6A: Top row, HeLa cells transduced with control shRNA. Second row, shRNA knock-down of MyD88. 6B: Top row, HeLa cells treated with MyD88 inhibitor linear peptide. Bottom row, HeLa cells treated with scrambled control version of the MyD88 inhibitor linear peptide (SEQ ID NO: 5).
FIG. 7. HeLa assay showing specificity of MyD88 inhibition by 4×4MyDI. HeLa cells were stimulated with recombinant TNFα or IL-1b and NFkB localization was determined with anti-p65 conjugated to rhodamine. The percent of cells with nuclear localization was determined, and is shown in the bar graphs on the right. Top row, HeLa cells with no pre-treatment. Second row, HeLa cells pre-treated for 30 min with the backbone cyclic 4×4MyDI compound.
Lead compounds were further tested in vitro to confirm the specificity of the inhibition. A fluorescence-based in vitro activity assay that determines the degree of activation of the transcription factor NFκB was established. In this assay, cells are treated with either TNFα or IL-1b, both inflammatory cytokines that activate NFκB. Upon activation, the p65 unit of the NFκB transcription factor re-locates from the cytoplasm to the nucleus. Using fluorescently-tagged antibodies to p65, the cytoplasmic vs. nuclear localization of the factor is determined. Importantly, since the signaling of IL-1b, but not TNFα, is dependent on MyD88, this assay can establish the specificity of the inhibition achieved using the lead compounds.
Cells were activated with either IL-1β (the signaling of the IL-1 receptor is dependent on MyD88), or with TNFα (signaling of its receptor is independent of MyD88). The activation was measured by the translocation of NFκB from the cytoplasm to the nucleus. As a positive control, a stable MyD88 knock-down cell line was established using lentiviral encoded shRNA.
Using the same system, when cells were treated with the backbone cyclic peptide 4×4MyDI, activation by IL-1β was blocked, however when treated with TNFα the activation was not inhibited.

Data set [6] deals with T2, MyD88 TIR domain (Homo sapiens, UniProt Q99836).
T2 construct: made in house
T2 sequence (Q99836 151-296): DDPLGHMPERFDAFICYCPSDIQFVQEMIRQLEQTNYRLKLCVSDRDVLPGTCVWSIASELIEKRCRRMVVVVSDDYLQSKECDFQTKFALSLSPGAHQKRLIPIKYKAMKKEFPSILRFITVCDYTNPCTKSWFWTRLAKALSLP
Description: Competition assay: binding of biotinylated linear BB loop peptide to MyD88 TIR domain. The following applies: different concentrations. The method, then:
FIG. 9. 4×4MyDI binds to the BB loop region of the MyD88 TIR domain. A 96 well plate was coated with recombinant MyD88 (8 μg/ml) in coating buffer vs. buffer alone, and wells were blocked with 1% BSA. Biotinylated linear peptide was added to all wells (125 μg/ml) followed by streptavidin-HRP and substrate. The signal of linear peptide bound to its target was inhibited by incubation with the 4×4MyDI (*P<0.05) but not by incubation with the scrambled version of the linear peptide (SEQ ID NO: 5).
The ability of the 4×4MyDI compound to bind to the target region (the BB loop) of the MyD88 TIR domain, was evaluated using a newly-designed assay. For this goal a competition assay was established that tests the ability of the 4×4MyDI compound to prevent the binding of the biotinylated linear BB loop peptide to the MyD88 TIR domain. The MyD88 TIR domain was produced as a recombinant protein fused to the SUMO3 protein (Accession # NP_008867), purified, and attached to a 96 well plate. Binding of biotinylated RDVLPGT (SEQ. ID NO: 1) peptide was detected using streptavidin conjugated to horse radish peroxidase (HRP) followed by the addition of HRP substrate.

Numbered stars: 1 amine (or outer) side, 2 acyl side, 3 side chain; on linkers, the order of the positions; unused ones are H or OH. Bridge positions count the residues as written; N and C are the ends. Square brackets hold non-standard residues; d marks the D form. Ends that are not written are not given here. CO = O=C([*:1])[*:2]

T1 sequence (P22366 whole entry): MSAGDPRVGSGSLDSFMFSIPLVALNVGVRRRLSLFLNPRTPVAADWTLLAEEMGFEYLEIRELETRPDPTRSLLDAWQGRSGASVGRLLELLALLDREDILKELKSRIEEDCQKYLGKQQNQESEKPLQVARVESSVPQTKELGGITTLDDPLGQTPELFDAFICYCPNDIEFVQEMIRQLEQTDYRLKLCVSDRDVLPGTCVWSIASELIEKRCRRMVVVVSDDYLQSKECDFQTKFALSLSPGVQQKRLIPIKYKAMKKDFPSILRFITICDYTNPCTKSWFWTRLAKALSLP

For “RDVLPGT [MIP, Arg-Asp-Val-Leu-Pro-Gly-Thr, reference compound]”, the “reduction of the level of IFN-γ” value in data set [1] (T cells with APC presenting MOG35-55 peptide plus IL-18) was 30-35%. Besides, the stability in plasma entry in data set [2] is “disappears rapidly”.
Take “6×6 bridge peptide: backbone cyclic peptide of Formula IV with m=6, n=6 (W[Gly(Nα-(CH2)6-NH2)]RDVL[Gly(Nα-(CH2)6-NH2)]GT; bridge 2-7 via CO)”: in data set [3], the “inhibition of TNFα production” value was “inhibited the human macrophage production of TNFα”. Besides, the “MyD88 inhibitory activity (reduction in TNFα production)” value in data set [4] is “greatest MyD88 inhibitory activity”.
For PTDLVRG [MIPscr, reference compound], the “Percent p65 nuclear translocation, TNFα” value in data set [5] (TNFα (MyD88 independent)) is 90%. The “Percent p65 nuclear translocation, No stimulation” value in data set [5] (no stimulation) was 0%. The “IL-18-stimulated IFNγ level” value in data set [1] (20 mM peptide (so in the source), IL-18 stimulation, supernatants after 24 h) is recorded as “had no effect”. The “inhibition of binding of the biotinylated peptide to the MyD88 TIR domain” value in data set [6] was “did not inhibit”.
